Reference: patent US20110217293A1, “Uses of morelloflavone” (priority 2008, published 2011)
Values joined by “and” are separate entries in the source; they are usually repeats but may differ in a detail not shown here. Equal entries are not always repeated. “Also recorded” adds a separate entry of the source.

Legend:
[1] = Serum morelloflavone level by HPLC; type: in vivo, mouse; details: treated apoE−/− mice, oral 0.15% w/w diet, at sacrifice
Experimental: Measurements were performed at a magnification of 200 using a Scion Image analysis computer program (Frederick, Md.). Data were obtained from the first 2 levels where endothelial denudation occurred. For each artery, the luminal area, area inside the internal elastic lamina (IELA), and the area encircled by external elastic lamina-IELA were measured. The intimal area (IA) was calculated as the IELA minus luminal area. For the determination of serum morelloflavone levels, animal sera were first digested by proteinase K in the presence of 0.01% SDS. Morelloflavone was then extracted into ethyl acetate and lyophilized.
The quantification of morelloflavone was performed by HPLC as described with following modifications. The pure morelloflavone was diluted to varying concentrations ([…]), aliquoted into multiple tubes, and lyophilized. The samples were dissolved in […] of 25% acetonitrile/0.55% acetic acid 10 of which […] were injected into a Vydac C-18 reversed phase HPLC column (Grace Davison Discovery Sciences, Deerfield, Ill.) in an Agilent 1100 HPLC system (San Jose, Calif.). […] The limit of detection (LOD) is defined as the concentration of morelloflavone that yielded a signal to noise of 2:1, and was calculated at 1.06 mM, from the 20 mM standard peak (signal to noise=37.6:1). […]

[2] = tested on: vascular smooth muscle cells; experiment: DNA fragmentation (apoptosis) assay; type: cell-based
Experimental: (§1) Mouse vascular smooth muscle cells, isolated as described (13), were maintained in 231 media (Cascade Biologics, Portland, Oreg.) supplemented with SMGS (Cascade Biologics) in a humidified incubator at 37° C. with 5% CO2. Cells from passages 4-9 were used in all experiments. All experiments were performed in subconfluent, unsynchronized cells growing in SMGS except for the lamellipodium formation assay.
Vascular smooth muscle cells were seeded at 1×10^5 cells per well in 24-well culture plates, treated with morelloflavone, and subjected to DNA fragmentation assay, according to the manufacturer's instructions (Cell Death Detection ELISAPLUS, Roche). Briefly, the cells were treated with […] of morelloflavone for 24 hrs. The 1×10^5 cells were lysed, cleared by centrifugation, and transferred into streptavidin-coated plates. Anti-histone antibody conjugated to biotin and anti-nucleosomal-DNA-antibody conjugated to horseradish peroxidase were added. After incubation and washing, 2,2′-azino-bis-[3-ethylbenzthiazoline-6-sulfonic acid] (ABTS) substrate solution was added. The 5 absorbance rate at 405 nm against ABTS solution was measured with the reference wavelength of 490 nm.

[3] = tested on: vascular smooth muscle cells; experiment: Lamellipodium formation assay; type: cell-based, mouse; design: effect on morphology of vascular smooth muscle cells: dose or concentration left out as unconfirmed; details: for lamellipodium index: 5% serum, 3 hrs
Experimental: as §1
The lamellipodium formation assay was performed as described (14). In brief, mouse vascular smooth muscle cells (serum-starved for 24 hrs) were seeded onto fibronectin-coated wells of chamber slides (CultureSlide, BD BioCoat Fibronectin) and incubated with various concentrations of morelloflavone (0, 1, and 10 mM) in the presence or absence of serum for 3 hrs at 37° C. Then, cells were fixed with 4% paraformaldehyde, permeabilized with 0.1% Triton X-100, stained with Alexa Fluor 594-Phallidin (Invitrogen-Molecular Probes) and DRAQ5 (Biostatus, Ltd, Leicestershire, UK), and viewed with the use of a Leica DM6000 confocal microscope. Lamellipodium indices were calculated as the number of lamellipodia divided by the total number of cells counted.

Lp-PLA2 = biological target: T1, Lp-PLA2 (Homo sapiens, UniProt Q13093); experiment: PLA2 enzyme activity assay, Lp-PLA2; type: biochemical; details: recombinant human Lp-PLA2, data not shown
T1 sequence (Q13093 22-441): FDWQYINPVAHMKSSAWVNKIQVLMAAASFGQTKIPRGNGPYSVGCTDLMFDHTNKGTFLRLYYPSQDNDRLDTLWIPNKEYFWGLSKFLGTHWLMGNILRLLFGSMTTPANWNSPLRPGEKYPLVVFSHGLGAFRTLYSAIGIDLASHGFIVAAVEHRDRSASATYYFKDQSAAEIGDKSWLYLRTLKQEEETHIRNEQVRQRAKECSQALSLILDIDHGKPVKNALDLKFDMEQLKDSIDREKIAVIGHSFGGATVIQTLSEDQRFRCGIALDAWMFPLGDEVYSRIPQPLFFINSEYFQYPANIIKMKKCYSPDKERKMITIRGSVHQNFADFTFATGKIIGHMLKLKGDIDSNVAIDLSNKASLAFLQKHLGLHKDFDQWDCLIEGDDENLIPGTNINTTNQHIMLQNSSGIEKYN
Experimental: Recombinant human sPLA2 isoforms, Group IB, Group IIA, Group V, and Lp-PLA2 were obtained from R&D Systems and Cayman Chemical Co. sPLA2 enzyme activities in the presence of various concentrations of morelloflavone or other inhibitors were determined using a commercially available assay system according to the manufacturer's instructions (Cayman Chemical Co.). Thioetheramide-1-palmitylthio-2-palmitoylamido-1,2-dideoxy-sn-glycero-3-phosphorylcholine (T-PC) and methyl arachidonyl fluorophosphonate (MAFP) were used as inhibitors of sPLA2 (IB, IIA, and V) and Lp-PLA2, respectively, per manufacturers' instructions.

With `O=C1c2c(O)cc(O)cc2O[C@H](c2ccc(O)cc2)[C@H]1c1c(O)cc(O)c2c(=O)cc(-c3ccc(O)c(O)c3)oc12` [morelloflavone, 5,7, 4′, 5″, 7″, 3″, 4″-heptahydroxy-[3,8″]-flavonylflavanone] the serum concentration of morelloflavone [1] was 1370 nM and 1400 nM, the “DNA fragmentation indices, trend with concentration” value ([2]; 0, 1, 10, 100 mM) was “decreased as morelloflavone concentrations increased” and the “apoptosis / induction of DNA fragmentation” value ([2]; concentrations equal to or less than 100 mM, 24 hrs) was “did not induce DNA fragmentation; also recorded: does not cause apoptosis; also recorded: does not induce cytotoxicity”. The lamellipodium index ([3]; 1 mM morelloflavone) was 0.05±0.001, the lamellipodium index ([3]; 10 mM morelloflavone) was 0.033±0.006 and the “effect on morphology of vascular smooth muscle cells” value ([3]; absence of serum, any concentration (0, 1)) was “did not change the morphology”. The “effect on lamellipodium indices / formation” value ([3]; serum stimulated, 1-10 mM) was “significantly decreased lamellipodium indices in a dose-dependent fashion; also recorded: failed to increase lamellipodium indices; also recorded: blocks” and the “inhibition of Lp-PLA2” value (Lp-PLA2) was “did not inhibit”.
